Test results from US20240263127A1, “CRYOPROTECTIVE COMPOSITIONS AND USES THEREOF” (DUPONT NUTRITION BIOSCIENCES APS, priority 2010, published 2024).
Like-named read-outs stand apart in the source and are kept apart here.

Experiments:
[1] = test system: Lactobacillus acidophilus; experiment: Viable cell count after freeze drying with cryoprotectant; type: cell-based; settings: for Recovery of viable cell from frozen pellets to freeze dried pellets: Example 2
Description: (§1) The cell count of the freeze dried material has been evaluated through a typical bacteria enumeration method used for lactic acid bacteria. In this method, the freeze dried bacteria were suspended into a MRS solution with a stomacher and revitalized in that solution for 30 minutes. The suspension was then successively diluted in bottles of peptone buffer and finally cultured on a MRS nutritive media for 48 to 72 hours at 38° C. under anaerobic condition. During that period, the bacteria form colonies on the nutritive media. Those colonies were counted and results were expressed as Colony Forming Units (CFU) per gram. Various cryoprotectants (see table 1) were mixed in a suspension containing, Lactobacillus acidophilus at an approximate cell count of 1E11 CFU/gr. The mixture, called stabilized concentrate, was kept at 4-8° C. for 1.5 hrs and continuously agitated before being frozen by dispensing droplets of the stabilized concentrate into liquid nitrogen. The resulting frozen droplets are called frozen pellets. The frozen pellets were freeze dried in a Virtis® freeze drier at 100 mT and a cell count measurement was performed just after freeze drying by performing an accelerated stability test. Various ratio of Inositol over Trehalose have been tested. The cryoprotectants were mixed for 1 to 3 hrs at 10-30° C. to a suspension containing Lactobacillus acidophilus at an approximate cell count of 1E11 CFU/gr. The mixture was frozen and freeze dried, and a cell count was performed just after freeze drying by performing an accelerated stability test, as disclosed in Example 1.

[2] = test system: Lactobacillus acidophilus; type: cell-based; settings: for Viable cell counts after accelerated stability test: L. acidophilus; for Recovery of viable cell after accelerated stability test: Lactobacillus acidophilus, 14 days
Description: as §1, with “gram. Long term stability of freeze dried bacteria as a function of time is a critical characteristic for commercial application. The long term stability can be evaluated by accelerated stability test consisting of placing the freeze dried cells into a sealed laminated aluminum foil in a constant temperature chamber maintained at 38° C. for fourteen days. The cell count of the freeze dried material is measured before and after the exposure to elevated temperature. A recovery rate of cells is calculated by subtracting the cells measured after the accelerated stability test from the initial cells measurement and dividing the subtraction results by the initial count. The accelerated stability test recovery rate gives a relative estimate of the long term cell stability.” for “gram.”

[3] = L. acidophilus suspension approx. 1E11 CFU/gr, freeze dried at 100 mT, Example 1
[4] = freeze dried cells 38° C. for fourteen days, Example 1
[5] = L. acidophilus, Example 2, Trehalose/Inositol ratios
[6] = 38° C. for fourteen days, Example 2

Row | SMILES | Viable cell counts after freeze drying [1, 3] [CFU/gr] | Viable cell counts after accelerated stability test [2, 4] [CFU/gr] | Recovery of viable cell after accelerated stability test [2] [%] | Recovery of viable cell from frozen pellets to freeze dried pellets ([1]; L. acidophilus) [%] | Viable cell counts after freeze drying [1, 5] [CFU/gr] | Recovery of viable cells after accelerated stability test [2] [%] | Viable cell counts after accelerated stability test [2, 6] [CFU/gr]
1 | O[C@H]1[C@H](O)[C@@H](O)[C@H](O)[C@@H](O)[C@H]1O [Inositol alone, Inositol] | 3.2E+11 | 1.3E+11 | 41.0 |  |  |  | 
2 | O[C@H]1[C@H](O)[C@@H](O)[C@H](O)[C@@H](O)[C@H]1O [Trehalose 0.0 / Inositol 9.1, Inositol] |  |  |  | 81.2 | 5.14E+11 | 72.37 | 3.72E+11
3 | O[C@H]1[C@H](O)[C@@H](O)[C@H](O)[C@@H](O)[C@H]1O [Trehalose 0.0 / Inositol 20.0, Inositol] |  |  |  | 94.7 | 3.70E+11 | 65.41 | 2.42E+11
4 | OC[C@H]1O[C@H](O[C@H]2O[C@H](CO)[C@@H](O)[C@H](O)[C@H]2O)[C@H](O)[C@@H](O)[C@@H]1O [Trehalose alone experiment 1, Trehalose] | 7.4E+11 | 2.2E+11 | 29.0 |  |  |  | 
5 | OC[C@H]1O[C@H](O[C@H]2O[C@H](CO)[C@@H](O)[C@H](O)[C@H]2O)[C@H](O)[C@@H](O)[C@@H]1O [Trehalose alone experiment 2, Trehalose] | 6.6E+11 | 2.4E+11 | 38.0 |  |  |  | 
